# Measurements taken from ChEMBL document CHEMBL3045431, “Stability of DNA upon interaction with dimethyltin dichloride” (Med Chem Res, 2007).
# Active and inactive are the calls of the source. The rule behind the calls is not given here.
# Columns and labels:
# [1] = Binding affinity to DNA assessed as dissociation constant at < 2 mM by isothermal spectrophotometric titration method
# DNA [2] = assay: Binding affinity to Bos taurus (calf) thymus DNA at 2 mM by isothermal spectrophotometric titration method; type: nucleic-acid assay
# DNA [3] = assay: Thermal stabilization of Bos taurus (calf) thymus DNA assessed as change in melting temperature at 2 mM by differential scanning calometric method; type: nucleic-acid assay
# DNA [4] = assay: Binding affinity to Bos taurus (calf) thymus DNA at 9 mM by isothermal spectrophotometric titration method; type: nucleic-acid assay
# DNA [5] = assay: Binding affinity to Bos taurus (calf) thymus DNA at 13.6 mM by isothermal spectrophotometric titration method; type: nucleic-acid assay
# DNA [6] = assay: Thermal stabilization of Bos taurus (calf) thymus DNA assessed as change in melting temperature at 13.6 mM by differential scanning calometric method; type: nucleic-acid assay
# DNA [7] = assay: Binding affinity to Bos taurus (calf) thymus DNA at 11 mM by isothermal spectrophotometric titration method; type: nucleic-acid assay
# [8] = Binding affinity to DNA assessed as association constant at < 2 mM by isothermal spectrophotometric titration method
# DNA [9] = assay: Binding affinity to Bos taurus (calf) thymus DNA at 0.5 mM by isothermal spectrophotometric titration method; type: nucleic-acid assay
Substance,Kd [1] [µM],K (DNA [2]) [×10³ /M],Activity (DNA [3]),K (DNA [4]) [×10³ /M],K (DNA [5]) [×10³ /M],Tm (DNA [6]) [°C],K (DNA [7]) [×10³ /M],Ka [8] [×10³ /M],K (DNA [9]) [×10³ /M]
DICHLORODIMETHYLSTANNANE,281,,,,,,,,
[sequence],,3.53,Active,0.123,0.143,70.2,0.125,3.56,3.59
